In patent publication US6964983B2, “Compounds that modulate PPAR activity and methods for their preparation” (Warner-Lambert Company, LLC, priority 2002, dated 2005):

Key:
hPPARα = target: T1, hPPARα (Homo sapiens, UniProt Q07869); test: Transient transfection assay in HepG2 cells, Gal4-hPPARα chimeric receptor, luciferase reporter; format: cell-based; conditions: Hep G2-hAlpha EC50, 24 hours incubation; read-out: EC50α nM (Group)
T1 sequence (Q07869 200-468 limits assumed): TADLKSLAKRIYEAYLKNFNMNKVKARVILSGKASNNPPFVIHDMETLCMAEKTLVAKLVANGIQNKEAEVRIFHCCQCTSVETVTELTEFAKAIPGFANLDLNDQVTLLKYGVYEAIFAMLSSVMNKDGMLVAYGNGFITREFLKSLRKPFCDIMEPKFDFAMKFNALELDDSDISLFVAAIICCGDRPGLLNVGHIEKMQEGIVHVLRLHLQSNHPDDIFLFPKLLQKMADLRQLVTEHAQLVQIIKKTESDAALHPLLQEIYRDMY
Description: 1. Test A. Transient Transfections Assay using the HepG2 Hepatoma Cell Line.
HepG2 cells were transiently transfected with an expression plasmids encoding hPPARα, hPPARβ or mPPARγ chimeric receptors and a reporter containing the yeast upstream activating sequence (UAS) upstream of the viral E1B promoter controlling a luciferase reporter gene. In addition, the plasmid pRSVβ-gal was used to control for transfection efficiency. HepG2 cells were grown in DMEM supplemented with 10% FBS and 1 μM non-essential amino acid. On the first day, cells were split into 100 mm dishes at 2.5×10^6/dish and incubated overnight at 37° C./5% CO2. On the second day the cells were transiently transfected with plasmid DNA encoding a chimeric receptor, the luciferase reporter gene; and β-gal. For each 100 mm dish, 15 μg of lucifease reporter (PG5E1b) DNA, 15 μg of Gal4-PPAR chimeric receptor DNA, and 1.5 μg of β-gal plasmid DNA were mixed with 1.4 ml of opti-MEM in the tube. 28 μl of LipoFectamine-2000 reagent was added to 1.4 ml of opti-MEM in the tube, and incubate for 5 min at RT. The diluted Lipofectamine-2000 reagent was combined with the DNA mixture, and incubate for 20 min at RT. After fresh medium was added to each 100 mm dish of cells, 2.8 ml of Lipofectamine2000-DNA mixture was added dropwise to the 100 mm dish containing 14 ml of medium, and incubate 37° C. overnight. On day three cells were trypsinized off the 100 mm dishes and re-plated on 96 well plates. Cells were plated at 2.5×10^4 cells per well in 150 μl of media and 50 μl of compound diluted by media was added. The test compound added were in the range from 50 μM to 50 pM. After addition of compounds, the plates were incubated at 37° C. for 24 hours. Subsequently cells were washed with once with 100 μl of PBS, lysed, and processed for measuring luciferase and β-gal activity using Dual-Light luciferase kit from Tropix ®, according to the manufacturer's recommendations, on an EG&G Bethold MicroLumat LB96P luminometer. EC50 values were obtained using the GraphPad Prism™ program.

hPPARβ = target: T2, hPPARβ (Homo sapiens, UniProt Q03181); test: Transient transfection assay in HepG2 cells, Gal4-hPPARβ chimeric receptor, luciferase reporter; format: cell-based; conditions: Hep G2-hBeta EC50, 24 hours incubation; read-out: EC50β nM (Group)
T2 sequence (Q03181 171-441 limits assumed): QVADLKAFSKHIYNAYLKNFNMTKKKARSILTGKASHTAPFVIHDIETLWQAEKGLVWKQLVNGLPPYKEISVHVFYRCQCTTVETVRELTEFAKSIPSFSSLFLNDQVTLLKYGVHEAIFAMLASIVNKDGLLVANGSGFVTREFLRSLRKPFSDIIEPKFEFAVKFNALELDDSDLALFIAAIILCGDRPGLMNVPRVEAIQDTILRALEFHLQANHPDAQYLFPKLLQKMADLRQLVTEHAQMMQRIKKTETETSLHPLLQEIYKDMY
Summary of the method: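 HepG2 cells were transiently co-transfected with Gal4-hPPARα or Gal4-hPPARβ chimeras, a UAS-E1B luciferase reporter and a β-gal normalisation plasmid. After re-plating, cells were treated with compound at 50 pM–50 μM for 24 h at 37°C. EC50 values were derived from luciferase read-out normalised to β-gal.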

Structure (SMILES)	EC50 (hPPARα)	melting point	EC50 (hPPARβ)
Cc1cc(CCc2ccc(-c3ccc(C(F)(F)F)cc3)cc2)ccc1OCC(=O)O [Example 25, {2-Methyl-4-[2-(4′-trifluoromethyl-biphenyl-4-yl)-ethyl]-phenoxy}-acetic acid]	1000 to 2000 nM	174 to 176 °C	2000 to 5000 nM
Cc1cc(SCc2ccc(-c3ccc(C(F)(F)F)cn3)cc2)c2c(c1OCC(=O)O)CCC2 [Example 27, {5-Methyl-7-[4-(5-trifluoromethyl-pyridin-2-yl)-benzylsulfanyl]-indan-4-yloxy}-acetic acid]	500 to 1000 nM	186 °C	2000 to 5000 nM
Cc1cc(SCc2ccc(-c3ccc(C(F)(F)F)cc3)cc2)c2c(c1OCC(=O)O)CCC2 [Example 28, [5-Methyl-7-(4′-trifluoromethyl-biphenyl-4-ylmethylsulfanyl)-indan-4-yloxy]-acetic acid]	1000 to 2000 nM	177 °C	1000 to 2000 nM
COc1cc(OCC(=O)O)c(C)cc1SCc1ccc(/C=C/c2cccc(F)c2)cc1 [Example 29, (4-{4-[2-(3-Fluoro-phenyl)-vinyl]-benzylsulfanyl}-5-methoxy-2-methyl-phenoxy)-acetic acid]	< 300 nM	154 °C (dec.)	< 300 nM
Cc1cc(SCc2ccc(OCc3ccc(C(C)(C)C)cc3)cc2)ccc1OCC(=O)O [Example 34, {4-[4-(4-tert-Butyl-benzyloxy)-benzylsulfanyl]-2-methyl-phenoxy}-acetic acid]	< 300 nM	135 to 137 °C	< 300 nM
Cc1cc(SCc2ccc(-c3ccc(C(F)(F)F)cn3)cc2)c2c(c1OCC(=O)O)CCCO2 [Example 36, {6-Methyl-8-[4-(5-trifluoromethyl-pyridine-2-yl)-benzylsulfanyl]-chroman-5-yloxy}-acetic acid]	< 300 nM	156 to 157 °C	2000 to 5000 nM
O=C(O)COc1ccc(SCc2ccc(OCc3ccc(Cl)cc3Cl)cc2)c2c1CCC2 [Example 62, {7-[4-(2,4-Dichloro-benzyloxy)-benzylsulfanyl]-indan-4-yloxy}-acetic acid]	> 5000 nM	149 to 150 °C	1000 to 2000 nM
O=C(O)COc1ccc(SCc2ccc(OCc3ccc(Cl)c(C(F)(F)F)c3)cc2)c2c1CCC2 [Example 73, {7-[4-(4-Chloro-3-trifluoromethyl-benzyloxy)-benzylsulfanyl]-indan-4-yloxy}-acetic acid]	2000 to 5000 nM	151 to 152 °C	< 300 nM
O=C(O)COc1ccc(SCc2ccc(OCc3ccc(F)c(C(F)(F)F)c3)cc2)c2c1CCC2 [Example 74, {7-[4-(4-Fluoro-3-trifluoromethyl-benzyloxy)-benzylsulfanyl]-indan-4-yloxy}-acetic acid]	2000 to 5000 nM	116 to 117 °C	< 300 nM
O=C(O)COc1ccc(SCc2cccc(OCc3ccc(C(F)(F)F)cc3)c2)c2c1CCC2 [Example 79, {7-[3-(4-Trifluoromethyl-benzyloxy)-benzylsulfanyl]-indan-4-yloxy}-acetic acid]	> 5000 nM	145 to 146 °C	300 to 500 nM
O=C(O)COc1ccc(SCc2ccccc2OCc2ccc(C(F)(F)F)cc2)c2c1CCC2 [Example 81, {7-[2-(4-Trifluoromethyl-benzyloxy)-benzylsulfanyl]-indan-4-yloxy}-acetic acid]	> 5000 nM	150 to 152 °C	< 300 nM
Cc1cc(SCc2ccc(-c3ccc(C(F)(F)F)cn3)cc2)c2c(c1OCC(=O)O)CCO2 [Example 92, {5-Methyl-7-[4-(5-trifluoromethyl-pyridin-2-yl)-benzylsulfanyl]-2,3-dihydro-benzofuran-4-yxoly}-acetic acid]	< 300 nM	155 to 157 °C	< 300 nM
O=C(O)COc1ccc(SCc2cc(-c3ccc(Cl)cc3)on2)c2c1CCC2 [Example 97, {7-[5-(4-Chloro-phenyl)-isoxazol-3-ylmethylsulfanyl]-indan-4-yloxy}-acetic acid]	> 5000 nM	157 to 159 °C	500 to 1000 nM

Further lines, results first:

EC50 (hPPARα)	melting point	EC50 (hPPARβ)	Structure (SMILES)
1000 to 2000 nM	139 to 141 °C	> 5000 nM	Cc1cc(SCc2ccc(OCc3ccc(F)cc3F)cc2)ccc1OCC(=O)O [Example 31, {4-[4-(2,4-Difluoro-benzyloxy)-benzylsulfanyl]-2-methyl-phenoxy}-acetic acid]
1000 to 2000 nM	143 to 145 °C	300 to 500 nM	Cc1cc(SCc2ccc(OCc3ccc(Cl)cc3Cl)cc2)ccc1OCC(=O)O [Example 32, {4-[4-(2,4-Dichloro-benzyloxy)-benzylsulfanyl]-2-methyl-phenoxy}-acetic acid]
1000 to 2000 nM	150 to 152 °C	1000 to 2000 nM	COc1ccc(COc2ccc(CSc3ccc(OCC(=O)O)c(C)c3)cc2)cc1 [Example 33, {4-[4-(4-Methoxy-benzyloxy)-benzylsulfanyl]-2-methyl-phenoxy}-acetic acid]
< 300 nM	141 to 142 °C	300 to 500 nM	Cc1cc(SCc2ccc(OCc3ccc(OC(F)(F)F)cc3)cc2)ccc1OCC(=O)O [Example 35, {2-Methyl-4-[4-(4-trifluoromethoxy-benzyloxy)-benzylsulfanyl]-phenoxy}-acetic acid]
1000 to 2000 nM	154 to 155 °C	2000 to 5000 nM	Cc1cc(SCc2ccc(OCc3ccc(F)cc3)cc2)ccc1OCC(=O)O [Example 57, {4-[4-(4-Fluoro-benzyloxy)-benzylsulfanyl]-2-methyl-phenoxy}-acetic acid]
> 5000 nM	101 to 103 °C	1000 to 2000 nM	Cc1cc(SCc2ccc(OCc3cc(Cl)ccc3Cl)cc2)ccc1OCC(=O)O [Example 59]
